Laboratory results taken from patent US20040194155A1, “HBV mutations associated with reduced susceptibility to adefovir” (priority 2002, published 2004).
Entries after “also recorded” stand apart in the source; their conditions may differ.

Columns and labels:
[1] = system: rtN236T mutant HBV (patient-derived clones); experiment: Whole HBV genome cell culture assay (HepG2 transient transfection), rtN236T clones; assay type: cell-based, hepatitis B virus; settings: for susceptibility of rtN236T mutant (in words): in vitro; for IC50 Fold Change (rtN236T/Wild-type): patient-derived HBV strain, rtN236T vs wild-type (Table 7)
HBV = experiment: Phase 3 clinical study GS-98-438, HBeAg negative chronic hepatitis B patients; assay type: in vivo, human
Protocol: The median serum HBV DNA levels declined by 3.5 and 3.9 log10 copies/mL from baseline to week 48 in the ADV 10 mg dose groups in HBeAg positive (Study GS-98-437) and in HBeAg negative (Study GS-98-438) chronic hepatitis B patients, respectively.
Adefovir resistance surveillance was performed in a blinded manner in HBeAg negative chronic hepatitis B patients treated for 96 weeks in a Phase 3 double-blind, randomized, placebo-controlled clinical study (GS-98-438) of adefovir dipivoxil 10 mg (ADV). The analysis included 79 patients who received ADV 10 mg daily for the first 48 weeks and were randomized to also receive ADV 10 mg during the second 48 weeks.
The reverse transcriptase (RT) domain of the HBV polymerase gene (rt1 to rt344) was sequenced for HBV DNA extracted from baseline and week 96 serum samples (or the last on-study sample) for the 79 patients treated continuously with ADV for 96 weeks if the samples had detectable serum HBV DNA (≧1000 copies/mL by Roche Amplicor™ PCR assay) at the time points tested.
Study GS-98-438 is a randomized, double-blind, placebo-controlled Phase 3 clinical study of the safety and efficacy of ADV for the treatment of patients with HBeAg negative/anti-HBe positive/HBV DNA positive chronic hepatitis B. A total of 184 patients received at least one dose of study medication during the first 48 weeks (n=61 and 123 for the placebo and ADV 10 mg groups, respectively). During the second 48 weeks, all placebo patients switched to ADV 10 mg daily while the ADV-treated patients were re-randomized to either continue ADV or receive placebo at a 2:1 ratio. Accordingly, all patients who received at least one dose of study drug during the second 48 weeks are classified into three groups: PLB-ADV (n=60), ADV-ADV (n=79), and ADV-PLB (n=40).
A virology substudy of Study GS-98-438 included all patients in the ADV 10 mg-ADV 10 mg group (n=79). The RT domain of the HBV polymerase gene from banked serum samples from these patients was genotypically analyzed at baseline, and either at week 96, or upon early termination during the second 48 weeks.
If the week 96 serum HBV DNA value was not available for a patient, the closest serum HBV DNA value prior to week 96 was used. All week 96 and the last on-drug samples are referred to as week 96 samples hereafter. Note that Roche Molecular Systems raised the lower limit of quantification of the HBV DNA PCR assay from 400 copies/mL to 1,000 copies/mL after Gilead completed the week 48 analyses for study 438.

[2] = system: rtK241E + rtK318Q mutant HBV (patient-derived clones); experiment: Whole HBV genome cell culture assay (HepG2 transient transfection), rtK241E + rtK318Q clones; settings: in vitro, patient 0370-3503
Protocol: All conserved site substitutions were evaluated for their effects on adefovir susceptibility using a novel approach to generate full-length patient-derived HBV clones. […] Full-length viral genomes were cloned into the lethal selection vector pCAP^s at a Mlu Nl site through blunt-end ligation (PCR Cloning Kit, Roche) and then subcloned into plasmid pHY106, a pBluescript KS (+)-derived plasmid containing a CMV promoter and the minimal 5′ and 3′ HBV sequence necessary (approximately 180 total bases) for viral replication after the insertion of a genome-length clinical HBV isolate. Drug susceptibility of patient-derived clones was analyzed by transient transfection into HepG2 cells.
To investigate if these conserved site mutations conferred resistance to adefovir, adefovir susceptibility of HBV isolates derived from the above five patients was evaluated using a whole HBV genome cell culture assay as described above.

[3] = system: rtN236T + rtA181T double mutant HBV; experiment: Whole HBV genome cell culture assay, rtA181T introduced by site-directed mutagenesis into rtN236T clones of patient 0454-2506; assay type: cell-based, hepatitis B virus; settings: adefovir, patient-derived HBV (0454-2506)
Excerpt: (§1) One patient (0454-2506) with the rtN236T mutation also developed a second conserved site mutation rtA181T at week 96. However, all week 96 isolates derived from the patient encoding both rtN236T and rtA181T were replication deficient in vitro; the reason for this is unclear. To assess the adefovir sensitivity of HBV containing both rtN236T and rtA181Tmutations, an artificial construct was obtained by modifying an existing patient-derived HBV clone. The rtA181T mutation was introduced by site-directed mutagenesis into replicating HBV clones from patient 0454-2506 that already encoded rtN236T. The resulting double mutants were replication competent and were used for adefovir susceptibility testing. […] The rtA181T mutation was also introduced into a standard HBV lab strain (genotyped, ayw) to assess the individual contribution of the rtA181T mutation.

[4] = system: wild-type HBV (patient-derived baseline clones); experiment: Whole HBV genome cell culture assay: patient-derived HBV clones transiently transfected into HepG2 cells, 7 days drug, Southern blot of intracellular replicating virus DNA; assay type: cell-based, hepatitis B virus; settings: adefovir, patient-derived HBV (0454-2506), reference
[5] = system: Lab HBV strain, rtA181T mutant; experiment: In vitro adefovir susceptibility of HBV lab strain with introduced rtA181T; assay type: cell-based, hepatitis B virus
Excerpt: as §1

C=C1[C@H](CO)[C@@H](O)C[C@@H]1n1cnc2c(=O)[nH]c(N)nc21 [Entecavir, entecavir]
susceptibility of rtN236T mutant (in words) [1]: remained susceptible | IC50 Fold Change (rtN236T/Wild-type) [1]: 0.67 fold

COc1ccc(Sc2nc(N)nc3c2ncn3CCOCP(=O)(OCC(F)(F)F)OCC(F)(F)F)cc1 [MCC-478]
IC50 Fold Change (rtN236T/Wild-type) [1]: 8.6 fold

Nc1ncnc2c1ncn2CCOCP(=O)(O)O [Adefovir, adefovir]
reduction in serum HBV DNA (HBV; patient 0370-3503 (rtK241E + rtK318Q), week 96): > 5 log10 | serum HBV DNA (HBV; patient 0370-3503, week 96): 3.1 log10 copies/mL | serum HBV DNA (HBV; patient 0370-3503, week 156 (February of 2003)): 3.6 log10 copies/mL | susceptibility of rtK241E + rtK318Q double mutant (in words) [2]: not associated with resistance; also recorded: remained fully susceptible | IC50 Fold Change (rtN236T/Wild-type) [1]: 9.6 fold | IC50 Fold Change from Wild-Type [3]: 2.5 fold | IC50 Fold Change from Wild-Type [4]: 1 fold | resistance conferred by rtA181T mutation (in words) [5]: did not confer resistance; also recorded: does not confer resistance

CC(C)(C)C(=O)OCOP(=O)(COCCn1cnc2c(N)ncnc21)OCOC(=O)C(C)(C)C [ADV, adefovir dipivoxil]
number of patients with HBV DNA < 1000 copies/mL at week 96 (HBV; of 79 patients on ADV 10 mg for 96 weeks, Roche Amplicor PCR): 58

Cc1cn([C@@H]2C[C@@H](O)[C@H](CO)O2)c(=O)[nH]c1=O [L-dT]
susceptibility of rtN236T mutant (in words) [1]: remained susceptible | IC50 Fold Change (rtN236T/Wild-type) [1]: 2.4 fold

C[C@H](Cn1cnc2c(N)ncnc21)OCP(=O)(O)O [Tenofovir, tenofovir]
IC50 Fold Change (rtN236T/Wild-type) [1]: 4.2 fold
